Entries after “also recorded” stand apart in the source; their conditions may differ.

One series has as its system PMM patient fibroblasts. As to the kind of experiment: Fatty acid OXPHOS in PMM patient fibroblasts (FIG. 4B, all lines). Type of series: cell-based, human. The note with it: 3, 9 and 30 nM. The procedure: (§1) LHON/Leigh cells were treated with DMSO or Compound (I) in complete media supplemented with 0.5 mM carnitine for 24 hours prior to assaying. Treated cells were trypsinized, collected in Krebs-Henseleit Buffer (KHB) and pelleted.
(§2) Palmitate-mediated OXPHOS was measured using an Oxygraph-2k (Oroboros Instruments). Cells (1×10^6) in KHB were loaded into each chamber with 250 μM BSA or BSA-conjugated palmitate. KHB was added to reach a final volume of 2 mL. Respiration was measured at 37° C. as previously described in Zhang, Z., et al., Primary respiratory chain disease causes tissue-specific dysregulation of the global transcriptome and nutrient-sensing signaling network. (1932-6203). Briefly, BSA and BSA-conjugated palmitate treated cells were analyzed simultaneously in two separate chambers. […]
(§3) Data were analyzed using DatLab6 software. […] Non-mitochondrial respiration was measured after addition of Rotenone and Antimycin A sequentially (ROX, residual oxygen consumption, background) and subtracted from maximal respiration values. […]
FAO was measured using a Seahorse XF96 (Seahorse Biosciences). […]

A short description of series [1]: 52-week monkey GLP toxicity study. Format: in vivo.
Series [2] deals with aged Diet-Induced Obese (DIO) C57BL/6NTac mice. As to the kind of experiment: Forced exhaustion running, activity and body composition in aged DIO mice. Format: in vivo, mouse. The note with it: 30 mg/kg. The method, then: (§4) All animal studies were performed in accordance with Charles River Laboratories animal welfare protocols. Male Diet-Induced Obese (DIO) C57BL/6NTac mice 28 weeks of age were fed a high fat diet. 20 mice were randomized based on bodyweight into two cohorts of 10 mice each. Five mice were assigned to each treatment group in each cohort (i) vehicle or (ii) Compound (I) at 30 mg/kg via (n=10 total animals per treatment). Groups were dosed orally by gavage, once daily for 45 days at the start of the dark cycle. Mice were acclimatized to the treadmill room for one hour on days of training or endurance runs. After an initial 5 min exploration period the treadmill belt moved at 5 m/min for 10 min with the motivation grid intensity set to 0.46 mA. Mice required a few visits to the grid to learn to walk/run on the moving belt and avoid the electric grid shock. After two acclimatization periods the mice learned to avoid the electric grid and stay on the moving belt, with fewer visits to the electric grid. The maximum speed for the endurance run was capped at 16.5 m/min based on speed acclimation runs, which represents the speed at which 25% of animals are running in the top ⅔ of the treadmill at a 5° slope. The mice were considered exhausted if they stayed on the electric grid with no limbs on the treadmill belt for 10 seconds.
Endurance was calculated as a Fatigue Index; this accounts for distance traveled, time on the treadmill, the number of breaks in running, and the length of those breaks. The cumulative number of stimulations for individual animals was plotted over time and the area under the curve (AUC) was calculated. AUC was divided by the distance individual animals completed during the course of the fatigue run to obtain the Fatigue Index. Voluntary activity is defined as the total number of X and Y axis laser beam breaks and rearing is defined as the total number of Z axis breaks per treatment group.

Another series concerns LHON/Leigh cells. Put plainly: Mitochondrial fatty acid oxidation assay by high-resolution respirometry (palmitate-mediated OXPHOS). Particulars: Leigh/LHON cell line, 24 hours treatment; FIG. 4B. Format: cell-based, human. The procedure: as §1, §2, §3
Series [3] is described as follows: Tissue exposure in skeletal muscle (gastrocnemius) of aged DIO mice. Format: in vivo, mouse. The note with it: 30 mg/kg oral once daily, 5 weeks, FIG. 6A. The procedure:
as §4, with “Groups were dosed orally by gavage, once daily for 45 days at the start of the dark cycle.” left out
Before and after the exhaustion run, blood samples were obtained via a tail vein nick. […]

The mark [4] stands for this setting: 5 weeks, vs vehicle, FIG. 6D-6E.

As to `Cc1cnc(-c2ccc(C(F)(F)F)cc2)n1Cc1ccccc1OCCC[C@@H](C)CC(=O)O` [Compound (I), (R)-3-Methyl-6-(2-((5-methyl-2-(4-(trifluoromethyl)phenyl)-1H-imidazol-1-yl)methyl)-phenoxy)hexanoic acid], the “fatty acid OXPHOS” value in the series on PMM patient fibroblasts is given as “increased”. Further, the “no observed adverse effect level (NOAEL)” value in series [1] was “highest tested dose”. Moreover, in series [2] (5 weeks, FIG. 5F), the “rate of falls in the motivational grid” value was “decrease”. Besides, the run distance entry in series [2] (5 weeks, FIG. 5H) is reported as “no change”. The “Fatigue Index” value in series [2] (5 weeks, vs vehicle, FIG. 5I) was “less fatigued”. In series [2] (setting [4]), the rearing result was “trend towards increased” and the voluntary activity result is “trend towards increased; also recorded: No statistically significant differences”. Further, the body weight result in series [2] (during the study, FIG. 6B) was “did not alter”. Besides, the body composition result in series [2] (during the study, FIG. 6C) is “did not alter; also recorded: No statistically significant differences”. Further, the “fatty acid-mediated OXPHOS” value with LHON/Leigh cells is given as “significantly increased”. Also, the skeletal muscle exposure entry in series [3] was “detectable and covered the mouse EC50”.

Values taken from patent US20240358681A1, “METHODS OF USE OF PPAR AGONIST COMPOUNDS AND PHARMACEUTICAL COMPOSITIONS THEREOF” (Mitobridge, Inc., priority 2021, published 2024).
